One series in a line: in vivo. The conditions noted are these: female, CD-1, mouse. The method, then:
(§1) A. Toxicity: Acute toxicities were determined using CD-1 female mice (supplied by Charles River Laboratories, Wilmington, Mass.) having a bodyweight of 18-25 g, and about 6 weeks of age. Compounds 1 and 2 at doses ranging from 1 to 70 mg/kg (formulated in 20% propylene glycol/water for a total volume of 10 μL/g of weight) were administered intraperitoneal (i.p.) and intravenous (i.v.) to groups of 5 mice (5 mice per concentration, per mode of administration). Two groups of 3 mice were injected with vehicle only. Mice were observed immediately after injection, within 4 hours and once a day for the subsequent days. Acute toxicity studies of Compound 1 in mice indicated no observable effect and high dose tolerability: 70 mg/kg intraperitoneal and 50 mg/kg intravenous (an MTD of 250 mg/kg was also determined by oral administration). […] In vitro Haemolytic activity results are also shown in Table 7, along with the in vivo toxicity and efficacy of Compound 1.

Series [1] deals with Staphylococcus aureus MRS3 (ATCC™ 700699). In words: MIC, broth microdilution (NCCLS M7-A5). The series is classed as cell-based. The conditions noted are these: read-out: MIC. The protocol: (§2) Antibacterial activity of Compounds 1 and 2 (Table 4) was measured by determining the minimal inhibitory concentration (MIC) necessary to obtain a complete inhibition of bacteria growth in eight indicator strains, namely Staphylococcus aureus (ATCC™ 6538P), Staphylococcus aureus MRS3 (ATCC™ 700699), Staphylococcus epidermidis (ATCC™ 12228), Bacillus subtilis (ATCC™ 23857), Bacillus megaterium (ATCC™ 14581), Enterococcus faecalis VRE-1 (ATCC™ 29212), Enterococcus faecalis VRE-2 (ATCC™ 51299) and Micrococcus luteus (ATCC™ 9341). Indicator strains preparation and MIC determination were performed according to the National Committee for Clinical Laboratory Standards (NCCLS) guideline M7-A5 Methods for Dilution Antimicrobial Susceptibility Tests for Bacteria That Grow Aerobically; Approved Standard-Fifth Edition. (NCCLS document M7-A5, ISBN 1-56238-394-9; NCCLS, 940 West Valley Road, Suite 1400, Wayne, Pa. 19087-1898 USA), the content of which is incorporated herein by reference.
(§3) Compounds 1 and 2 were prepared as 100× stock solution in DMSO, with concentrations ranging from 3.2 mg/ml to 0.00625 mg/ml (a two-fold dilution series over […]). An aliquot of each 100× stock solution was diluted 50-fold in test medium described below to give a set of ten (10) 2× solutions ranging from 64 to 0.125 μg/mL. 50 μl of each of the ten 2× solutions was aliquoted into the corresponding well of a 12-well row, with the final well reserved for medium alone control. Each test was made in duplicate.
(§4) Vancomycin (Sigma™) used as positive control compounds, was prepared as 2× stock solutions in sterile, double-distilled water (ddH2O) ranging from 64 μg/ml to […] (a two-fold dilution series over 10 points). An aliquot of 50 μl corresponding to each concentration (at 2×) was then transferred to 96-well microplates to obtain a series of eleven two-fold dilutions.
(§5) An isolated colony of each of the eight indicator strains was used to inoculate tubes containing 3 ml of test medium. Mueller-Hinton test medium was used for Staphylococcus aureus (ATCC™ 6538P), Staphylococcus aureus MRS3 (ATCC™ 700699), Staphylococcus epidermidis (ATCC™ 12228), Bacillus subtilis (ATCC™ 23857), Bacillus megaterium (ATCC™ 14581) and Micrococcus luteus (ATCC™ 9341) indicator strains, and BHI (Brain-Heart Infusion broth) test medium was used for Enterococcus faecalis VRE-1 (ATCC™ 29212) and Enterococcus faecalis VRE-2 (ATCC™ 51299) indicator strains. Cells were grown overnight at 28° C. with shaking. Inoculum density for each indicator strain was adjusted to OD600=0.1 in 5 ml 0.85% saline, then further diluted 1/100 in appropriate medium. 50 μl of the final dilution (in test medium) of each indicator strain was added to each well of a 12-well row. This brings the final dilution of the test article or control compound in solution to 1×. The final inoculum is approximately 5×10^5 CFU/ml.
(§6) The indicator strains were incubated with 11 concentrations of each of Compounds 1 and 2, Vancomycin (Sigma™) control compound and one media alone control. For MIC determination, assay plates were incubated at 35° C. for 18 hours.
A general note: In broth dilution the organism is exposed to a series of concentrations in liquid medium.

Series [2] has as its system Staphylococcus aureus (ATCC™ 6538P). In words: MIC, broth microdilution (NCCLS M7-A5). Conditions: read-out: MIC. In kind it is cell-based. The method, then: as §2, §3, §4, §5, §6
Series [3] concerns Micrococcus luteus (ATCC™ 9341). In words: MIC, broth microdilution (NCCLS M7-A5). In kind it is cell-based. Conditions: ATCC9341, M. luteus ATCC 9341, Mueller-Hinton, 35° C., 18 hours, read-out: MIC. The protocol:
as §2, §3, §4, §5, §6

The subject of series [4] is Staphylococcus epidermidis (ATCC™ 12228). In words: MIC, broth microdilution (NCCLS M7-A5). In kind it is cell-based. The conditions noted are these: read-out: MIC. The method, then: as §2, §3, §4, §5, §6
Series [5] concerns Bacillus subtilis (ATCC™ 23857). Nature of the series: MIC, broth microdilution (NCCLS M7-A5). Conditions: ATCC23857, B. subtilis ATCC 23857, Mueller-Hinton, 35° C., 18 hours, read-out: MIC. In kind it is cell-based. The protocol:
as §2, §3, §4, §5, §6

The subject of series [6] is Bacillus megaterium (ATCC™ 14581). In words: MIC, broth microdilution (NCCLS M7-A5). In kind it is cell-based. Conditions: Priestia megaterium, ATCC14581; B. megaterium ATCC 14581; Mueller-Hinton; 35° C., 18 hours; read-out: MIC. The protocol:
as §2, §3, §4, §5, §6

A further series is described as follows: in vitro. In kind it is cell-based. Conditions: sheep; concentration to achieve 50% hemolysis of SRBC; read-out: In vitro Hemolytic activity (EC50). The protocol: as §1
A further series has as its system SRBC. In words: in vitro. In kind it is cell-based. The conditions noted are these: at a concentration of 128 μg/ml. The protocol:
as §1

[7] abbreviates: ATCC700699, S. aureus ATCC 700699, Mueller-Hinton, 35° C., 18 hours.
[8] abbreviates: ATCC6538P, S. aureus ATCC 6538P, Mueller-Hinton, 35° C., 18 hours.
The mark [9] stands for this setting: ATCC12228, S. epidermidis ATCC 12228, Mueller-Hinton, 35° C., 18 hours.

In brackets after ≈: the same amount, converted by molar mass. Where two headings read alike, the source gives them in different places.

Usually MIC stands for the least concentration at which growth counts as inhibited. The term EC50 denotes the concentration giving half of the maximal effect. `CC(=CC=CC=CC=CC=CC(C)C(OC1OC(C(=O)O)C(O)C(O)C1O)C(C)=CC(C)CCCC=CC(C)CC=CCCCN(C)C(=N)N)C(=O)NC1=C(O)CCC1=O` (stereo not shown) [Compound 1, 3,4,5-trihydroxy-6-[1-[11-(2-hydroxy-5-oxocyclopent-1-enylcarbamoyl)-1-methyldodeca-2,4,6,8,10-pentaenyl]-2,4,10-trimethyl-16-(N-methyl-guanidino)-hexadeca-2,8,12-trienyloxy]-tetrahydropyran-2-carboxylic acid]: the figures for the MTD in the series “in vivo” (ip) and in “in vivo” (po) were 70 mg/kg and 250 mg/kg, respectively. In addition, the MIC in series [1] (setting [7]) is 4 µg/mL (≈ 4.78 µM); in [1] (Table 6, S. aureus MRSA-hVISA), 4 µg/mL (≈ 4.78 µM); in [2] (setting [8]) it was 2 µg/mL (≈ 2.39 µM); in series [2] (Table 6, S. aureus MSSA), 2 µg/mL (≈ 2.39 µM); in [3], 4 µg/mL (≈ 4.78 µM); in series [4] (setting [9]), 4 µg/mL (≈ 4.78 µM). The MIC in series [4] (Table 6, S. epidermidis) came out at 4 µg/mL (≈ 4.78 µM); in series [5], 1 µg/mL (≈ 1.19 µM); in series [6], 1 µg/mL (≈ 1.19 µM). For the same molecule, the EC50 in “in vitro” was above 128 µg/mL.

As for `C\C(=C/C=C/C=C/C=C/C=C/C(C)C(OC1OC(C(=O)O)C(O)C(O)C1O)/C(C)=C/C(C)CCC/C=C/C(C)C/C=C/CCCNC(=N)N)C(=O)NC1=C(O)CCC1=O` (stereo not shown) [Compound 2, 6-{16-guanidino-1-[11-(2-hydroxy-5-oxocyclopent-1-enylcarbamoyl)-1-methyldodeca-2,4,6,8,10-pentaenyl]-2,4,10-trimethylhexadeca-2,8,12-trienyloxy}-3,4,5-trihydroxy-tetrahydro-pyran-2-carboxylic acid], the MIC in series [1] (setting [7]) was 1 µg/mL (≈ 1.22 µM); in [1] (Table 6, S. aureus MRSA-hVISA), 1 µg/mL (≈ 1.22 µM); in [2] (setting [8]), 1 µg/mL (≈ 1.22 µM); in [2] (Table 6, S. aureus MSSA) it was 1 µg/mL (≈ 1.22 µM); in [3] it was 1 to 2 µg/mL (≈ 1.22 to 2.43 µM); in [4] (setting [9]) it was 1 µg/mL (≈ 1.22 µM). Besides, the MIC in series [4] (Table 6, S. epidermidis) was found to be 1 µg/mL (≈ 1.22 µM); in [5], 2 µg/mL (≈ 2.43 µM); in [6], 1 µg/mL (≈ 1.22 µM). Also, in the series with SRBC, the Haemolytic activity result was “No Haemolytic activity”.

(Values after patent publication US20050215490A1, “Polyene polyketides and methods of treating bacterial infections” (Ecopia BioSciences, Inc., priority 2003, published 2005).)
